PubChem BioAssay AID1259411 (Chemical Carcinogenesis Research Information System (CCRIS), 2018)
Active and inactive are the calls of the source. How the calls were made is not given here.

Test system: rodent carcinogenicity bioassays, tumor incidence
Experiment: CCRIS carcinogenicity studies
Details: Route: ORAL
How it was run: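 Archive of carcinogenicity, mutagenicity, tumor promotion and tumor inhibition results drawn from journals, NCI reports and other sources, expert-reviewed; covers 1985-2011 and is no longer updated.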

Question: How did the carcinogen call (Species: MOUSE, Strain/Sex: CPB:SWISS/FEMALE, Dose: 0, 2, 5, 10% IN DIET FOR 104 WK (STUDY DURATION: 734 D), Dose: 0, 2, 5, 10% IN DIET FOR 104 WK (STUDY DURATION: 734 D)) turn out when `OC[C@@H](O)[C@@H](O[C@@H]1O[C@H](CO)[C@H](O)[C@H](O)[C@H]1O)[C@H](O)[C@@H](O)CO` was run?
Answer: inactive; negative

Question: And the carcinogen call (Species: MOUSE, Strain/Sex: CPB:SWISS/MALE, Dose: 0, 2, 5, 10% IN DIET FOR 104 WK (STUDY DURATION: 730 D), Dose: 0, 2, 5, 10% IN DIET FOR 104 WK (STUDY DURATION: 730 D))?
Answer: inactive; negative

Question: What about the carcinogen call (Species: RAT, Strain/Sex: SPF/FEMALE, Dose: 0, 2, 5, 10% IN DIET FOR DURATION OF STUDY ADMINISTERED TO OFFSPRING OF RATS FED THE SAME DIETS (STUDY DURATION: 130 WK), Dose: 0, 2, 5, 10% IN DIET FOR DURATION OF STUDY ADMINISTERED TO OFFSPRING OF RATS FED THE SAME DIETS (STUDY DURATION: 130 WK)) of the same compound?
Answer: inactive; negative

Question: What about the carcinogen call (Species: RAT, Strain/Sex: SPF/MALE, Dose: 0, 2, 5, 10% IN DIET FOR DURATION OF STUDY ADMINISTERED TO OFFSPRING OF RATS FED THE SAME DIETS (STUDY DURATION: 130 WK), Dose: 0, 2, 5, 10% IN DIET FOR DURATION OF STUDY ADMINISTERED TO OFFSPRING OF RATS FED THE SAME DIETS (STUDY DURATION: 130 WK), Tumor Site: Type of Lesion: TESTES: LEYDIG CELL TUMOR) of the same compound?
Answer: active; positive

Question: `OCCOCCO` was tested. Which carcinogen call (Species: RAT, Strain/Sex: F344/FEMALE, Dose: 0, 1.25, 2.5% IN DRINKING WATER FOR 108 WK (STUDY DURATION: 108 WK), Dose: 0, 1.25, 2.5% IN DRINKING WATER FOR 108 WK (STUDY DURATION: 108 WK)) did it give?
Answer: inactive; negative

Question: What about the carcinogen call (Species: RAT, Strain/Sex: F344/MALE, Dose: 0, 1.25, 2.5% IN DRINKING WATER FOR 108 WK (STUDY DURATION: 108 WK), Dose: 0, 1.25, 2.5% IN DRINKING WATER FOR 108 WK (STUDY DURATION: 108 WK)) of the same compound?
Answer: inactive; negative

Question: With `CCN(CC)c1ccc2c(-c3ccc(S(=O)(=O)O)cc3S(=O)(=O)[O-])c3ccc(=[N+](CC)CC)cc-3oc2c1` as the compound, how does the carcinogen call (Species: RAT, Strain/Sex: F344/FEMALE, Dose: 0, 2.5, 5% IN DIET FOR 106 WK (STUDY DURATION: 106 WK), Dose: 0, 2.5, 5% IN DIET FOR 106 WK (STUDY DURATION: 106 WK)) read?
Answer: inactive; negative

Question: And the carcinogen call (Species: RAT, Strain/Sex: F344/MALE, Dose: 0, 2.5, 5% IN DIET FOR 106 WK (STUDY DURATION: 106 WK), Dose: 0, 2.5, 5% IN DIET FOR 106 WK (STUDY DURATION: 106 WK))?
Answer: inactive; negative

Question: For `Cc1cc(NS(=O)(=O)c2ccc(N)cc2)no1`, which carcinogen call (Species: RAT, Strain/Sex: CD-1/MALE,FEMALE, Dose: 25, 50, 150, 300, 600 MG/KG/D IN DIET FOR 60 WK, Dose: 25, 50, 150, 300, 600 MG/KG/D IN DIET FOR 60 WK, Tumor Site: Type of Lesion: THYROID GLAND: ADENOMA OR NODULES) is on record?
Answer: active; positive

Question: Which results are given for `O=C(Nc1ccc([N+](=O)[O-])cc1Cl)c1cc(Cl)ccc1O`?
Answer: carcinogen call (Species: MOUSE, Strain/Sex: B6C3F1/FEMALE, Dose: 0, 274, 549 PPM IN DIET FOR 78 WK (STUDY DURATION: 91-92 WK), Dose: 0, 274, 549 PPM IN DIET FOR 78 WK (STUDY DURATION: 91-92 WK)): inactive; negative; carcinogen call (Species: RAT, Strain/Sex: OSBORNE-MENDEL/FEMALE, Dose: 0, 14216, 28433 PPM IN DIET FOR 78 WK (STUDY DURATION: 110-111 WK), Dose: 0, 14216, 28433 PPM IN DIET FOR 78 WK (STUDY DURATION: 110-111 WK), Tumor Site: Type of Lesion: MAMMARY GLAND: ADENOCARCINOMA, STOMACH: CARCINOMA): equivocal; carcinogen call (Species: RAT, Strain/Sex: OSBORNE-MENDEL/MALE, Dose: 0, 14216, 28433 PPM IN DIET FOR 78 WK (STUDY DURATION: 110-111 WK), Dose: 0, 14216, 28433 PPM IN DIET FOR 78 WK (STUDY DURATION: 110-111 WK)): inactive; negative

Question: What does the source list for `COC(=O)N/N=C/c1c[n+]([O-])c2ccccc2[n+]1[O-]`?
Answer: carcinogen call (Species: RAT, Strain/Sex: WISTAR/FEMALE, Dose: 0, 50, 100, 250, 500 PPM IN DIET FOR 12 MO (STUDY DURATION: 12 MO), Dose: 0, 50, 100, 250, 500 PPM IN DIET FOR 12 MO (STUDY DURATION: 12 MO), Tumor Site: Type of Lesion: LIVER: HEPATOCELLULAR CARCINOMA): active; positive; carcinogen call (Species: RAT, Strain/Sex: WISTAR/MALE, Dose: 0, 50, 100, 250, 500 PPM IN DIET FOR 12 MO (STUDY DURATION: 12 MO), Dose: 0, 50, 100, 250, 500 PPM IN DIET FOR 12 MO (STUDY DURATION: 12 MO), Tumor Site: Type of Lesion: LIVER: HEPATOCELLULAR CARCINOMA): active; positive
